{"source": "patent US8691768B2", "about": "“Methods of determining delta opioid receptor subtypes” (The Regents of the University of California, priority 2008, dated 2014)", "key": {"[1]": {"target": "delta opioid receptor (DOP-R) (rat) (UniProt P33533)", "sequence (P33533 whole entry, stated change not applied)": "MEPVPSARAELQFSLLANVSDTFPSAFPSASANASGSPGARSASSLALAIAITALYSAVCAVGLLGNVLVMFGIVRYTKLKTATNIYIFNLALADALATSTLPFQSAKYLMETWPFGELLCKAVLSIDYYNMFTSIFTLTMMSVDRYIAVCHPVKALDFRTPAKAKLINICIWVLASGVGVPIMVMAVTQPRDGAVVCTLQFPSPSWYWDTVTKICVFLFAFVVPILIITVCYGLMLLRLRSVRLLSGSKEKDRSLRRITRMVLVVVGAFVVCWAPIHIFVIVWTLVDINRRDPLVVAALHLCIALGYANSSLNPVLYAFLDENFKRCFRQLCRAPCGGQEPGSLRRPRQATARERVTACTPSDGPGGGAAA", "test": "cell-based or functional assay"}, "[2]": {"tested_on": "GABAA IPSCs in VTA neurons", "test": "Slice electrophysiology, whole-cell patch-clamp of GABAA IPSCs in VTA neurons", "type": "cell-based, Lewis rats", "settings": "animals treated with 5 mg/kg morphine IP twice daily for 7 days"}, "[3]": {"tested_on": "DOR", "test": "Immunocytochemistry of DOR expression in VTA tissue", "type": "in vivo, Lewis rats", "settings": "chronic treatment, once daily 0.5 mg/kg for 20 days", "procedure": "Materials and Methods: Male Lewis rats (250-300 g) were housed as in Example 8. In the first part of the experiment, rats received once daily injections of 0.5 mg/kg morphine for 20 days, after which they were sacrificed and the VTA tissue was examined for DOR expression. Standard immunocytochemical methods were used with a DOR-targeted antibody (SC9111) purchased from Santa Cruz Biotechnology, Inc. For electrophysiology experiments, rats received twice daily injections, 10 hours apart, of 5 mg/kg morphine IP for 7 days."}, "[4]": {"settings": "numerous animal studies; cited from earlier work"}, "[5]": {"settings": "clinical studies; cited from earlier work"}, "[6]": {"tested_on": "C57BL/6 mice", "test": "Limited access 2-bottle choice drinking paradigm (water or 10% ethanol)", "type": "in vivo", "settings": "for ethanol consumption (drinking behavior): 5 mg/kg s.c. alone, 4 hour 2-bottle choice", "protocol": "Male C57BL/6 mice (20-23 g, Taconic) were individually housed in ventilated PLEXIGLAS® cages at ambient temperature (21° C.) in a room maintained on a reversed 12L:12D cycle (lights off at 10.00, lights on at 22.00). Food and water was provided ad libitum. The mice were given time to acclimatize to the individual housing conditions and reverse light cycle before the start of the experiments. Mice were weighed weekly. All procedures were pre-approved by the Gallo Center Institutional Animal Care and Use Committee and were in accordance with National Institutes of Health Guide for the Care and Use of Laboratory Animal.\nFrom Monday through Friday, mice were presented with a 2-bottle choice (water or 10% ethanol) for a 4 hour period (11.00-15.00) while in the dark cycle. Outside the 2-bottle choice period, all mice had unlimited access to water. All fluids were presented in 100-ml graduated glass cylinders with stainless-steel drinking spouts inserted through two grommets in front of the cage. Bottles were weighed to the nearest decigram (0.1 g) at the start and end of the 2-bottle choice period. The positions of the tubes containing water and ethanol were reversed daily to limit the effects of positional preference. Mice (9 per group) were injected with drugs subcutaneously (s.c.) on Friday 30 minutes before the start of the 2-bottle choice period.\n(§1) Ethanol and sucrose solutions were prepared in tap water using 95% (vol/vol) ethanol (Gold Shield Chemical Co., Hayward, Calif., USA). Naltriben mesylate (NTB), 7-benzylidenenaltrexone maleate (BNTX) were purchased from Tocris (MO, USA). TAN-67 dihydrobromide, naltrindole hydrochloride (NTI) and naltrexone hydrochloride (NTX) were from Sigma-Aldrich (MO, USA). All compounds were dissolved in saline, with the exception of BNTX and NTB, which were dissolved in 5% DMSO. All drugs were made up immediately prior to injection and were administered s.c. at a volume of 10 ml/kg.\nBaseline values were determined by taking the average of the consumption over the three days prior to injection. Statistical analysis was performed using Prism software (GraphPad, San Diego, Calif.). Significance was determined by means of one-way ANOVA or two-way ANOVA (repeated measures). A post-hoc Newman-Keuls (one-way ANOVA) or Bonferroni (two-way ANOVA) test was used when a significant overall effect was found (p<0.05). (*, p<0.05; **, p<0.01; ***, p<0.001)."}, "[7]": {"tested_on": "Lewis rats, ventral tegmental area (VTA)", "test": "Ethanol self-administration (two-bottle continuous access) after microinjection into the VTA", "type": "in vivo", "settings": "0.2 mM microinjected into VTA", "protocol": "(§2) Male Lewis rats (Harlan Laboratories, Indianapolis, Ind.) weighing between 275-300 g were individually housed in a temperature controlled colony room (21° C.) maintained on a reversed light/dark cycle 12L:12D cycle (lights off at 10 A.M., lights on at 10 P.M.). All experiments were performed during the dark portion of the cycle. Food and water was provided ad libitum.\n(§3) Ethanol was administered via a two-bottle continuous access, free-choice paradigm in which one bottle contained 10% ETOH (v/v) and the other bottle contained water. Sucrose was never added to the ethanol solution. The amount of ETOH and water consumed was measured at the same time daily (10 A.M.). […] Animals were weighed daily. Bottles were identical and their positions were counterbalanced and rotated daily. Change in drinking was calculated by subtracting the amount of drinking (mg/kg) on the day following treatment from the amount of drinking (mg/kg) on the day prior to treatment.\nAnimals were anesthetized and maintained on isoflurane (0.5 l/min) as needed for the duration of surgery. Animals were placed in a stereotaxic frame and were implanted with bilateral 26-gauge stainless steel chronic guide cannulas (Plastincs One, Roanoke, Va.) into the VTA (AP, −5.8; ML, ±0.5; DV, −7.0) based on the atlas of Paxinos and Watson (1997, The rat brain in sterotaxic coordinates, compact, Ed 3. San Diego: Academic). Cannulas were secured to the skull with dental cement. At the end of the surgical procedure, animals were treated with penicillin and topical antibiotics. A stainless steel dummy cannula (Plastics One) was inserted into each guide cannula and remained in place when the guide cannulas were not in use. Animals were allowed a 1 week recovery period before behavioral testing.\nEach injection was made using a 1 μl syringe (Hamilton, Reno, Nev.) attached to 20 cm of PE 50 tubing connected to a 33-gauge injection cannula (Plastics One). Microinjections of 0.5 μl volumes were given at a rate of 0.5 μl/min using a syringe pump (kd Scientific, Hollister, Mass.) into each side of the VTA, except for bicuculline injections, where 0.25 μl was injected per side. Injection cannulas extended 2 mm beyond guide cannulas and were left in place for 1 min following microinjections to minimize the backflow of drug solution. In addition to drug microinjections, physiological saline microinjections were made in every rat to measure the effect of the injection manipulation alone on drinking Drug injections were randomized and counterbalanced. Change in drinking due to drug microinjections was calculated by comparing both the previous day's consumption (“baseline”) and to saline injection. At the conclusion of the experiment, animals were anesthetized with pentobarbital and perfused intracardially through the ascending aorta with 0.1 M phosphate buffered saline followed by 10% formalin. Brains were sectioned coronally at 50 μm, mounted and stained with cresyl violet. Only animals with confirmed injection sites within the VTA were included. No behavioral differences were observed between animals with anterior compared with posterior cannula placements.\nFor behavioral experiments, DPDPE (10mM; Sigma, St. Louis, Mo.), TIPP-ψ (5 μM; NIDA, Bethesda, Md.), Bicuculline (1 mM; Sigma), DAMGO (0.2 mM; Sigma), and CTOP (10 mM; Tocris, Ellisville, Mo.) were prepared in physiological saline for microinjection into the VTA. For electrophysiology, all drugs were applied by bath perfusion. Stock solutions were made and diluted in artificial CSF immediately before application. All chemicals were obtained from Sigma or Tocris except TIPP-ψ, which was acquired from NIDA.\nResults are presented as mean±SEM where appropriate. For behavioral data, drinking was analyzed using 24 h time points. Raw drinking data were used for paired Student's t test comparisons probing drug effects on drinking compared with baseline or saline injections, a more conservative comparison than analyzing normalized data. […]"}, "[8]": {"test": "Rewarding effect of TAN-67 (Example 4, method not given)", "type": "in vivo", "settings": "therapeutically effective dose"}, "[9]": {"tested_on": "C57BL/6 mice", "test": "Locomotor activity assay", "type": "in vivo", "settings": "assayed 30 minutes after injection for 4 hours", "protocol": "To determine the effect of DOP-R subtype-selective drugs on mouse locomotion, the following locomotor activity assay was performed. On the testing day, mice (n=8) were habituated to the locomotor boxes for 30 minutes prior to the behavioral assay. Mice were injected s.c. with vehicle (saline or 5% DMSO), 25 mg/kg TAN-67 or 6 mg/kg NTB and placed back in the locomotor boxes. Locomotor activity was assayed 30 minutes after injection for 4 hours using Accuscan Digipro activity monitors (Accuscan, Columbus, Ohio). All mice were tested during their light phase between the hours of 9.00 and 14.00. Mice were placed into custom-made acrylic boxes that were 21×21 cm and 28 cm tall. One acrylic box was used per single Accuscan monitor (Accuscan). Activity monitors were themselves housed inside sound-attenuating chambers (Med-Associates, St Albans, Vt.) equipped with lights and fans, both of which were turned on during the testing session. To eliminate variability due to handling and novelty, on the two days before the testing day, mice were habituated to the locomotor boxes for 30 minutes injected with saline and placed in the locomotor box for an additional 30 minutes."}, "[10]": {"tested_on": "C57BL/6 mice", "test": "Sucrose intake (natural reward)", "settings": "mouse, in vivo", "protocol": "as §1"}, "[11]": {"tested_on": "chronically drinking rats", "test": "Drinking of chronically drinking rats after systemic administration", "type": "in vivo", "protocol": "as §2, §3"}}, "note": "Where a name gives a salt, the structure may show the parent alone. Read-outs that look alike come from different tables or passages of the source."}
{"compound": "(2-D-penicillamine, 5-D-penicillamine)-enkephalin (DPDPE) (peptide)", "values": [{"measurement": "saturating dose for inhibition of evoked IPSCs (dose-response in the presence of 1 µM CTAP)", "setting": "[1]", "value": 1, "unit": "µM"}]}
{"compound": "CN1CC[C@]23c4c5ccc(O)c4O[C@H]2[C@@H](O)C=C[C@H]3[C@H]1C5", "note": "[morphine]", "values": [{"measurement": "electrically evoked GABA release on activating DOR1", "setting": "[2]", "value": "inhibits electrically evoked GABA release"}, {"measurement": "DOR expression in the VTA", "setting": "[3]", "value": "increases"}]}
{"compound": "O=C1CC[C@@]2(O)[C@H]3Cc4ccc(O)c5c4[C@@]2(CCN3CC2CC2)[C@H]1O5", "note": "[NTX, naltrexone hydrochloride]", "values": [{"measurement": "ethanol consumption", "setting": "[4]", "value": "decrease ethanol consumption"}, {"measurement": "ethanol consumption", "setting": "[5]", "value": "decrease ethanol consumption"}, {"measurement": "ethanol consumption", "setting": "[6]; 1.5 mg/kg s.c., 30 min before 4 hour 2-bottle choice", "value": "decrease in ethanol consumption"}, {"measurement": "ethanol consumption (drinking behavior)", "setting": "[6]", "value": "only moderate effects"}]}
{"compound": "C[C@@H](NC(=O)[C@@H](N)Cc1ccc(O)cc1)C(=O)NCC(=O)N(C)[C@@H](Cc1ccccc1)C(=O)NCCO", "note": "[DAMGO]", "values": [{"measurement": "drinking (EtOH)", "setting": "[7]", "value": "did not affect drinking"}]}
{"compound": "CN1CCC2(c3cccc(O)c3)Cc3nc4ccccc4cc3CC2C1", "note": "(stereo not drawn) [TAN-67, 2-methyl-4 alpha alpha-(3-hydroxyphenyl)-1,2,3,4,4a,5,12,12 alpha alpha-octahydro-quinolino[2,3,3,-g]isoquinoline]", "values": [{"measurement": "rewarding by itself", "setting": "[8]", "value": "not rewarding"}, {"measurement": "locomotor activity compared to vehicle treated animals", "setting": "[9]; 25 mg/kg s.c.", "value": "did not show any significant difference"}, {"measurement": "sucrose intake", "setting": "[10]", "value": "neither TAN-67 [F(1,16)=0.057, p=0.81] nor NTB [F(1,16)=0.62, p=0.44]had an affect"}, {"measurement": "ethanol consumption", "setting": "[6]; 12.5 mg/kg s.c. alone", "value": "no effect"}, {"measurement": "ethanol consumption", "setting": "[6]; dose dependence, s.c.", "value": "dose-dependent decrease"}, {"measurement": "ethanol preference", "setting": "[6]; dose dependence, s.c.", "value": "dose-dependent decrease"}]}
{"compound": "Naltriben mesylate [NTB]", "values": [{"measurement": "locomotor activity compared to vehicle treated animals", "setting": "[9]; 6 mg/kg s.c.", "value": "did not show any significant difference"}, {"measurement": "sucrose intake", "setting": "[10]", "value": "neither TAN-67 [F(1,16)=0.057, p=0.81] nor NTB [F(1,16)=0.62, p=0.44]had an affect"}, {"measurement": "ethanol consumption (drinking behavior)", "setting": "[6]", "value": "no effect"}, {"measurement": "ethanol consumption", "setting": "[6]; dose dependence, s.c.", "value": "dose dependently decreased"}, {"measurement": "ethanol preference", "setting": "[6]; dose dependence, s.c.", "value": "dose dependently decreased"}]}
{"compound": "COC(=O)/C=C/C(=O)N[C@@H]1CC[C@@]2(O)[C@H]3Cc4ccc(O)c5c4[C@@]2(CCN3CC2CC2)[C@H]1O5", "note": "[beta-FNA, β-funaltrexamine]", "values": [{"measurement": "drinking", "setting": "[11]", "value": "decrease their drinking"}]}
{"compound": "TIPP-ψ (peptide)", "values": [{"measurement": "evoked IPSC amplitude, decrease from baseline, antagonist alone (n=3)", "setting": "[1]", "value": 6.8, "unit": "%"}, {"measurement": "spontaneous IPSC amplitude, decrease, antagonist alone (n=2)", "setting": "[1]", "value": 2.6, "unit": "%"}, {"measurement": "spontaneous IPSC frequency, decrease, antagonist alone (n=2)", "setting": "[1]", "value": 8.6, "unit": "%"}]}
{"compound": "Oc1ccc2c3c1O[C@H]1c4[nH]c5ccccc5c4C[C@@]4(O)[C@@H](C2)N(CC2CC2)CC[C@]314", "note": "[NTI, naltrindole hydrochloride]", "values": [{"measurement": "ethanol consumption", "setting": "[6]; 10 or 15 mg/kg s.c.", "value": "did not alter"}, {"measurement": "ethanol preference", "setting": "[6]; 10 or 15 mg/kg s.c.", "value": "did not alter"}]}
